The target of assay [1] is T1, Delta-type opioid receptor (Mus musculus, UniProt P32300). Briefly: Binding affinity for delta opioid receptor using [3H]DPDPE from mouse vas deferens.
In assay [2] the target is T1, Delta-type opioid receptor. The assay can be described thus: Agonist activity was assessed in mouse vas deferens (MVD) smooth muscle bioassay. Type of assay: functional, tissue-based, Muscle tissue.
In assay [3] the target is T2, Mu-type opioid receptor (Cavia porcellus, UniProt P97266). Briefly: Binding affinity against mu opioid receptor using [3H]DAMGO in guinea pig ileum. Type of assay: tissue-based.
T2 sequence (P97266 whole entry): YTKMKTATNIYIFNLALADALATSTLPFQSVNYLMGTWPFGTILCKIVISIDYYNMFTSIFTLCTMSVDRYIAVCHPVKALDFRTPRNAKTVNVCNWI
Assay [4] deals with T2, Mu-type opioid receptor. The assay can be described thus: Agonist activity was assessed in an guinea pig ileum (GPI) smooth muscle bioassay. Format: functional, tissue-based.

T1 sequence (P32300 whole entry): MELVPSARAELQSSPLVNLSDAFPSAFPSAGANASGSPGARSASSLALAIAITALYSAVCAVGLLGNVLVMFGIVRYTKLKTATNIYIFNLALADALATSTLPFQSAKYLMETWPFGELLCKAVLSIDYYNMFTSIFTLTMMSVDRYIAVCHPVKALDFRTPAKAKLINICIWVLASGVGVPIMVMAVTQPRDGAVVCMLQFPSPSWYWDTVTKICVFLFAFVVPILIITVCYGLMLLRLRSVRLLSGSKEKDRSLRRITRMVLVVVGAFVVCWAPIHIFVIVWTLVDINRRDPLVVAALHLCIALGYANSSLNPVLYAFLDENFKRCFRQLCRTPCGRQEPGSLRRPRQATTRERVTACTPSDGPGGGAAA

For `CC1(C)SSC[C@H](NC(=O)[C@@H](N)Cc2ccc(O)cc2)C(=O)N[C@H](Cc2ccccc2)C(=O)N[C@@H]1C(=O)O` (stereo in doubt; 4), the inhibition constant Ki in assay [1] worked out at 4.8 nM. The compound further registered an IC50 in assay [2] of 9.72 nM.

For `CC1(C)SSC[C@H](NC(=O)[C@@H](N)Cc2ccc(O)cc2)C(=O)N[C@H](Cc2ccccc2)C(=O)N[C@@H]1C(=O)O` (stereo in doubt; 3), the affinity in assay [1], expressed as Ki, was 12.3 nM. In assay [2], the IC50 was 51.8 nM.

With `C[C@@H](c1ccccc1)[C@H]1NC(=O)[C@@H](NC(=O)[C@@H](N)Cc2ccc(O)cc2)CSSC(C)(C)[C@@H](C(=O)O)NC1=O`, the Ki in assay [3] is above 10 µM; in assay [1], 237 nM. Further, the IC50 was 1110 nM in assay [2] and above 30 µM in assay [4].

For `CC1(C)SSC[C@H](NC(=O)[C@@H](N)Cc2ccc(O)cc2)C(=O)N[C@H](Cc2ccccc2)C(=O)N[C@@H]1C(=O)O` (stereo in doubt; 6), the Ki in assay [1] worked out at 70 nM.

`CC1(C)SSC[C@H](NC(=O)[C@@H](N)Cc2ccc(O)cc2)C(=O)N[C@H](Cc2ccccc2)C(=O)N[C@@H]1C(=O)O` (stereo in doubt; 5) had a Ki in assay [1] of 1.52 nM. The IC50 in assay [2] was determined as 4.13 nM.

As a reminder, the Ki is the dissociation constant of the complex between target and ligand, obtained from inhibition or displacement. As usually defined, the IC50 is the midpoint of a concentration-inhibition curve. Low readings indicate greater potency, high ones weaker potency.
